Laboratory results: patent publication EP4789715A2, “METHODS FOR TREATING NEOINTIMAL HYPERPLASIA USING F11R/JAM-A INHIBITORS” (The Research Foundation for The State University of New York, priority 2019, dated 2026)
Non-standard residues stand in square brackets, D forms with d. Residues, ends and D or L forms follow the SMILES beside them.

System: uremic C57BL/6 mice
Assay: carotid artery ligation (mid-focal LCA stenosis) model of neointimal hyperplasia in 5/6-nephrectomized uremic mice
Format: in vivo
Conditions: for mean Intima Index (ratio of intima area/intima + media area): intraperitoneal injections for 21 days, n=7
Protocol: Carotid artery ligation was performed on 14 uremic C57BL/6 mice that underwent 5/6 nephrectomy. One week after nephrectomy, partial ligation of the left carotid artery (LCA) was performed on each mouse. Focal LCA stenosis was created by placing 9-0 nylon suture at 1mm proximal to the carotid bifurcation (mid-focal stenosis) around the artery using a 35-gauge blunt needle (World precision Instruments, Inc., Sarasota, FL). Then the needle mandrel was gently removed to restore blood flow.
Mice were fed a regular mouse diet and divided into 2 groups of 7 mice each; the experimental group received Peptide 4D while the Control group received saline injections by intraperitoneal route for 21 days, as this was the time shown in earlier studies to correlate with development of neointimal hyperplasia following partial ligation of the carotid artery.
The mice were then euthanized on day 21 and both LCA and right carotid artery (RCA) were excised for analysis. Specimens were embedded in paraffin. Serial sections (6 µm thick) were collected at 200-µm intervals of the LCA from mid-focal stenosis as well as from the RCA serving as lesion control. Data were analyzed qualitatively and quantitatively using Image J software. The two groups were compared for differences in mean Intima Area and Intima Index, defined as the ratio of intima area divided by intima plus media area.

CC(C)[C@H](NC(=O)[C@H](CO)NC(=O)[C@H](N)CCCCN)C(=O)N[C@H](C(=O)N[C@H](CCCNC(=N)N)C(=O)N[C@@H](CCC(=O)O)C(=O)N[C@@H](CC(=O)O)C(=O)N[C@H](C(=O)NCC(=O)N[C@H](C(=O)N[C@@H](Cc1ccc(O)cc1)C(=O)N[C@H](C(=O)N[C@@H](CS)C(N)=O)[C@@H](C)O)[C@@H](C)O)[C@@H](C)O)[C@@H](C)O [Peptide 4D, NH2-(dK)-SVT-(dR)-EDTGTYTC-CONH2] (H-[dK]SVT[dR]EDTGTYTC-NH2)
experimental mice LCA with severe neointimal hyperplasia (7 treated mice, day 21, all LCA in control mice developed severe neointimal hyperplasia, two with complete luminal occlusion): only one had severe neointimal hyperplasia
mean Intima Index (ratio of intima area/intima + media area) (average from 10 LCA locations, FIG. 6, control (0.27 + 0.13), p = 0.0079): significantly less mean intima/intima + media ratio
mean Intima Index (ratio of intima area/intima + media area) (average from 10 LCA locations, FIG. 6, control (0.27 + 0.13), p = 0.0079, listed as peptide 4D): 0.089 + 0.081
arterial lumen (H&E-stained cross sections of the carotid artery) (different distances from the point of ligation, compared to occluded lumens in the controls, FIGs. 1A-1B): arterial lumen is preserved
mean Intima Index (ratio of intima area/intima + media area) (from 1 LCA location with biggest focal stenosis, FIG. 7, control (0.47 + 0.15), p = 0.039): 0.31 + 0.14
intima area relative to distance from the ligation point (mid focal stenosis morphometry of LCA, 10 locations, treated versus control untreated uremic mice, FIG. 4): significantly smaller
neointimal hyperplasia (uremic C57BL/6 mice, carotid ligation model, 21 days of administration, overall conclusion in words): significantly inhibits neointimal hyperplasia
